From patent US12258327B2, “5-membered heteroaryl-containing aminopyridine compounds as EGFR inhibitors” (YUHAN CORPORATION, priority 2021, dated 2025)
Like-named read-outs stand apart in the source and are kept apart here.

How the values were obtained:
[1] = molecular target: EGFR del19/T790M/C797S (Homo sapiens, UniProt P00533, C797S/DEL746-750/T790M); assay: Biochemical EGFR kinase assay (Lance Ultra TR-FRET), triple mutant del19/T790M/C797S
Procedure, shortened: (§1)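 Enzyme reactions lasted 1 hour at room temperature with test compounds between 0.003 and 10 μM, followed by 10 mM EDTA quench.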

[2] = molecular target: EGFR L858R/T790M/C797S (Homo sapiens, UniProt P00533, C797S/L858R/T790M); assay: Biochemical EGFR kinase assay (Lance Ultra TR-FRET), triple mutant L858R/T790M/C797S
Procedure, shortened: as §1

[3] = molecular target: EGFR del19/C797S (Homo sapiens, UniProt P00533, C797S/DEL746-750); assay: Biochemical EGFR kinase assay (Lance Ultra TR-FRET), double mutant del19/C797S
Procedure, shortened: as §1

[4] = molecular target: EGFR L858R/C797S (Homo sapiens, UniProt P00533, C797S/L858R); assay: Biochemical EGFR kinase assay (Lance Ultra TR-FRET), double mutant L858R/C797S
Procedure, shortened: as §1

[5] = molecular target: EGFR wildtype (WT) (Homo sapiens, UniProt P00533); assay: Biochemical EGFR kinase assay (Lance Ultra TR-FRET), wildtype
Procedure, shortened: as §1

[6] = IC50 del19/T790M/C797S (nM) 100 μM ATP, 100 μM ATP
[7] = Km ATP, read-out: IC50 del19/T790M/C797S (nM) Km ATP
[8] = IC50 L858R/T790M/C797S (nM) 100 μM ATP, 100 μM ATP
[9] = Km ATP, read-out: IC50 L858R/T790M/C797S (nM) Km ATP
[10] = IC50 del19/C797S (nM) 100 μM ATP, 100 μM ATP
[11] = Km ATP, read-out: IC50 del19/C797S (nM) Km ATP
[12] = IC50 L858R/C797S (nM) 100 μM ATP, 100 μM ATP
[13] = Km ATP, read-out: IC50 L858R/C797S (nM) Km ATP
[14] = IC50 WT (nM) 100 μM ATP, 100 μM ATP
[15] = Km ATP, read-out: IC50 WT (nM) Km ATP

EGFR del19/T790M/C797S, sequence (P00533 with tags, fused parts or gaps DEL746-750/T790M/C797S): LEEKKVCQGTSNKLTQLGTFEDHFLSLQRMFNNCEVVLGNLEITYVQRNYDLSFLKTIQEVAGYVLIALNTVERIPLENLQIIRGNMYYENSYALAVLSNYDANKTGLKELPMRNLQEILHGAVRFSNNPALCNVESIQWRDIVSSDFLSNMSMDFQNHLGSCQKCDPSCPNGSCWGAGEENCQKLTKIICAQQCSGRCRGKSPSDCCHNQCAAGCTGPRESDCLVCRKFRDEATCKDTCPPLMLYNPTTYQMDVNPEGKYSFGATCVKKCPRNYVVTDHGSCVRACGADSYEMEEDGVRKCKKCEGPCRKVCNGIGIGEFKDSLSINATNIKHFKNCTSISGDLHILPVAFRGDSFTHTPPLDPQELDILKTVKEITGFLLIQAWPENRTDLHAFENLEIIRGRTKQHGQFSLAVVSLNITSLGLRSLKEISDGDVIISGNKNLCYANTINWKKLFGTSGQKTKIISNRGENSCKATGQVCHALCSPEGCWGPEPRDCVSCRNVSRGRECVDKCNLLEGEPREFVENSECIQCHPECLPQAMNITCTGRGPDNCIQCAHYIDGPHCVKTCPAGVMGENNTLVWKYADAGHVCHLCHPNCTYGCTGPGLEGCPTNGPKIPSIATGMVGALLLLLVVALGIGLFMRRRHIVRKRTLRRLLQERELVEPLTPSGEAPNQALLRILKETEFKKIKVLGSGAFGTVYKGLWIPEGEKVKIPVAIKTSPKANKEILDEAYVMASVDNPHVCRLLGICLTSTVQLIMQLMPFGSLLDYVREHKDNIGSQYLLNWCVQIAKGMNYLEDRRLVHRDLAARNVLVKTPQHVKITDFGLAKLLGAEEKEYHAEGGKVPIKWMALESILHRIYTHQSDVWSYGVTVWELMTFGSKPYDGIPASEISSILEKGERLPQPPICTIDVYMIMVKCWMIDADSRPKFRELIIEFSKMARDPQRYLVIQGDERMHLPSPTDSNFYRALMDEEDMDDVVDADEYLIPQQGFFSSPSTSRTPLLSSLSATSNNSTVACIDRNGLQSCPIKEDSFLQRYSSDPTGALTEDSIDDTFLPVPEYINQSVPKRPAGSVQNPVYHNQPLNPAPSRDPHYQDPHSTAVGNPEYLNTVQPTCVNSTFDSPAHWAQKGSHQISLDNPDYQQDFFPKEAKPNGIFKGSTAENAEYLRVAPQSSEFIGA
EGFR L858R/C797S, sequence (P00533 25-1210 C797S/L858R): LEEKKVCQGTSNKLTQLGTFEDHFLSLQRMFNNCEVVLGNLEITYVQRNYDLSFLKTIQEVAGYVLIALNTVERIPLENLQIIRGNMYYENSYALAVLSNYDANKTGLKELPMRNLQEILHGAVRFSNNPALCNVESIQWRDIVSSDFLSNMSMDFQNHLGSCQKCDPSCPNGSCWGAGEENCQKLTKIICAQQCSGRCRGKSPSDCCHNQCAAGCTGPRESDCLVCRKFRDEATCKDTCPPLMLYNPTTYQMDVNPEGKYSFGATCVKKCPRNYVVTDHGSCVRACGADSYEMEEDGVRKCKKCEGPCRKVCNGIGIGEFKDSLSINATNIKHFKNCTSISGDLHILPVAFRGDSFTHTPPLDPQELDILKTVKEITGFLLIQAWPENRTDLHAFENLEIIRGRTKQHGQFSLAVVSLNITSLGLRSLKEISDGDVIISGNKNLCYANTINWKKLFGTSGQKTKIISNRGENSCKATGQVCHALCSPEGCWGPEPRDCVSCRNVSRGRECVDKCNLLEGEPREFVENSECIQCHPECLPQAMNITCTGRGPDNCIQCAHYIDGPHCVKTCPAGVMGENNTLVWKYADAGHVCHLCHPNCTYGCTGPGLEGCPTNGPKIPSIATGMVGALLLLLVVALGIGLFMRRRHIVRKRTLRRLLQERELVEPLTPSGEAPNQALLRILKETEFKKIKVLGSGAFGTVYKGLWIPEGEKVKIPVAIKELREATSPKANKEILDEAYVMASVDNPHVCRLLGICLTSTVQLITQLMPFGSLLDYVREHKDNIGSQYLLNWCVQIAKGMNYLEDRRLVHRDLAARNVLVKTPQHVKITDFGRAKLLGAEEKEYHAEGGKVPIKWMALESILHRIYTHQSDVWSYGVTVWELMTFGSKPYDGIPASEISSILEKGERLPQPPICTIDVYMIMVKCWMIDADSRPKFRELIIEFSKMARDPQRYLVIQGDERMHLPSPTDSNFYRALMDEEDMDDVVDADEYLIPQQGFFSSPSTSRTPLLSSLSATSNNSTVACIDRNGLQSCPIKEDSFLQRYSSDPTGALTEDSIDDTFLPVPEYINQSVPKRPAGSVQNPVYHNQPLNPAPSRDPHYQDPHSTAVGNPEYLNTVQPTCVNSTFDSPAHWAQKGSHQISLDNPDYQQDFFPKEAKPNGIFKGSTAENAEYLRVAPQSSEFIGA
EGFR wildtype (WT), sequence (P00533 25-1210): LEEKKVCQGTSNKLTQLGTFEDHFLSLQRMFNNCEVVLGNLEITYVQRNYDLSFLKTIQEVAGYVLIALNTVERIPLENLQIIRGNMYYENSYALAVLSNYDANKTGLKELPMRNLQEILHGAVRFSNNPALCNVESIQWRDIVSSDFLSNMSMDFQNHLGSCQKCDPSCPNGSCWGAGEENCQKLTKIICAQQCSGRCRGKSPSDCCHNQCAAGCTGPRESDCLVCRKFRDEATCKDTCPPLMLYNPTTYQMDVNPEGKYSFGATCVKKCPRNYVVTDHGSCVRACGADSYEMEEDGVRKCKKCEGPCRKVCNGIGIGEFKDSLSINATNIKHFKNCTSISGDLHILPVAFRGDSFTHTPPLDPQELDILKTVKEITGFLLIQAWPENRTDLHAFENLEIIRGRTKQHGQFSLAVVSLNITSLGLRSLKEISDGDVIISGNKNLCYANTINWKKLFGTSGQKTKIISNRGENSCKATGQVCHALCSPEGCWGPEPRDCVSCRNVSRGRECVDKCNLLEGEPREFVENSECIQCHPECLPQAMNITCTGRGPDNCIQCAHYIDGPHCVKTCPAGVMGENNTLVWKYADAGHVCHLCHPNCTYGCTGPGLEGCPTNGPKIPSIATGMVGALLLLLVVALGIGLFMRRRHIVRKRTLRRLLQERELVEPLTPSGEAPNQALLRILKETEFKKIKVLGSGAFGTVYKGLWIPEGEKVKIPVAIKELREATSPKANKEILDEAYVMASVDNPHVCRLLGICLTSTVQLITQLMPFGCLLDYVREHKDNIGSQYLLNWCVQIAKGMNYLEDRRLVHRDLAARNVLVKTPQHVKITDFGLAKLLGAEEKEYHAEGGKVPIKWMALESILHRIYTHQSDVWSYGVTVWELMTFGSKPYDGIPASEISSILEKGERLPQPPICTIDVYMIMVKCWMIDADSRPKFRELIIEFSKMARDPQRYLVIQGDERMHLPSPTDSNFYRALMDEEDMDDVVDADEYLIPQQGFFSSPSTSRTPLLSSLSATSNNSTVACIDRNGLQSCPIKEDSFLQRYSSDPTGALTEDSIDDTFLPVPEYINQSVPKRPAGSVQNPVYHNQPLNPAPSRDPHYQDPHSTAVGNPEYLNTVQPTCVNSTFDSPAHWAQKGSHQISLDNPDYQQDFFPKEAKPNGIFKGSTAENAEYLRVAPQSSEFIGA
EGFR L858R/T790M/C797S, sequence (P00533 25-1210 T790M/C797S/L858R): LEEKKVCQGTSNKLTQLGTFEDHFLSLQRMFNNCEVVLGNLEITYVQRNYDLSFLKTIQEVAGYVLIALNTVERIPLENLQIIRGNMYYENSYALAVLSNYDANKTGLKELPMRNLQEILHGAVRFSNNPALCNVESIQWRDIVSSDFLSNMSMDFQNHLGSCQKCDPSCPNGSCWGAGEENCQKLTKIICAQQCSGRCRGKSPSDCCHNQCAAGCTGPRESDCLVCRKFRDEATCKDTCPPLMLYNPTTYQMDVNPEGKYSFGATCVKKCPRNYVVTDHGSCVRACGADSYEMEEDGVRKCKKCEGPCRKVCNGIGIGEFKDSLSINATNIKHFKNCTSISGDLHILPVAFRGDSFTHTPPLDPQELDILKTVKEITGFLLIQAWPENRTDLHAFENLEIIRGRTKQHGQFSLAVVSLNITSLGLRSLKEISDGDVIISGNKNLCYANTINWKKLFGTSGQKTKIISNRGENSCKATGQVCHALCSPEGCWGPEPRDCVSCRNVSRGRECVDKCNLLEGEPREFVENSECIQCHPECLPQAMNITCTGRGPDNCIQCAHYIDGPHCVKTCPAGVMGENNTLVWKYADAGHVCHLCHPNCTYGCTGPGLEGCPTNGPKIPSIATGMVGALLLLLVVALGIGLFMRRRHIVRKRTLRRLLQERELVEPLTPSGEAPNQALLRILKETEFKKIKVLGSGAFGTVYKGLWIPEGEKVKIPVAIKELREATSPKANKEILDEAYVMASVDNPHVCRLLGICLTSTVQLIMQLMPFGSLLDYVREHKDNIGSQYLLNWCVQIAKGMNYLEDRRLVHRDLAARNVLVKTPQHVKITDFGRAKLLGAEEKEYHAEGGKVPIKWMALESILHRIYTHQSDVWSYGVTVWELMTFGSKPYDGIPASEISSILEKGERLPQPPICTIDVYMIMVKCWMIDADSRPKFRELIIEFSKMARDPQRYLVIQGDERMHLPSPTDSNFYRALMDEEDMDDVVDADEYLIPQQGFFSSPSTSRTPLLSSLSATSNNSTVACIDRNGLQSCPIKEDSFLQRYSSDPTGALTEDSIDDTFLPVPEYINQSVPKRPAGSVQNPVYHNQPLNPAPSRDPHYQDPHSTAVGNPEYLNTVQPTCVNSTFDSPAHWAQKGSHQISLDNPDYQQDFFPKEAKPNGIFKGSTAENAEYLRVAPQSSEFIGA

Compound	IC50 [1, 6]	IC50 [1, 7]	IC50 [2, 8]	IC50 [2, 9]	IC50 [3, 10]	IC50 [3, 11]	IC50 [4, 12]	IC50 [4, 13]	IC50 [5, 14]	IC50 [5, 15]	IC50 ([1]; Km ATP, read-out: IC50 del19/T790M/C797S, Km ATP)	IC50 ([2]; Km ATP, read-out: IC50 L858R/T790M/C797S, Km ATP)	IC50 ([3]; Km ATP, read-out: IC50 del19/C797S, Km ATP)	IC50 ([4]; Km ATP, read-out: IC50 L858R/C797S, Km ATP)	IC50 ([5]; Km ATP, read-out: IC50 WT, Km ATP)
O=S(=O)(C1CC1)n1cc(-c2nccc(Nc3cc(NC[C@H]4C[C@@H](O)C4)c(-c4ccn(C(F)F)n4)cn3)n2)cn1 [Example 35, (1s,3s)-3-(((2-((2-(1-(Cyclopropylsulfonyl)-1H-pyrazol-4-yl)pyrimidin-4-yl)amino)-5-(1-(difluoromethyl)-1H-pyrazol-3-yl)pyridin-4-yl)amino)methyl)cyclobutan-1-ol]	0.3 nM	0.4 nM	0.9 nM	0.2 nM	5.4 nM	5.2 nM	57.6 nM	6.5 nM	> 10000 nM	32.9 nM					
O=S(=O)(C1CC1)n1cc(-c2nccc(Nc3cc(N[C@H]4CC[C@](O)(C(F)F)CC4)c(-c4ccn(C(F)F)n4)cn3)n2)cn1 [Example 200, (1s,4s)-4-((2-((2-(1-(Cyclopropylsulfonyl)-1H-pyrazol-4-yl)pyrimidin-4-yl)amino)-5-(1-(difluoromethyl)-1H-pyrazol-3-yl)pyridin-4-yl)amino)-1-(difluoromethyl)cyclohexan-1-ol]	1 nM	0.6 nM	2.1 nM	0.4 nM		13.5 nM	293 nM	15.4 nM	> 10000 nM	2850 nM					
Cn1ccc(-c2cnc(Nc3ccnc(-c4cnn(S(=O)(=O)C5CC5)c4)n3)cc2NC[C@H]2CC[C@H](NCC(F)F)CC2)n1 [Example 129, N^2-(2-(1-(Cyclopropylsulfonyl)-1H-pyrazol-4-yl)pyrimidin-4-yl)-N^4-(((1r,4r)-4-((2,2-difluoroethyl)amino)cyclohexyl)methyl)-5-(1-methyl-1H-pyrazol-3-yl)pyridine-2,4-diamine]	0.7 nM		0.7 nM		2 nM		14.3 nM		> 10000 nM						
Cn1nc(-c2cnc(Nc3ccnc(-c4cnn(S(=O)(=O)C5CC5)c4)n3)cc2N[C@H]2CC[C@@](C)(O)CC2)cc1C(C)(C)O [Example 293, (1s,4s)-4-((2-((2-(1-(Cyclopropylsulfonyl)-1H-pyrazol-4-yl)pyrimidin-4-yl)amino)-5-(5-(2-hydroxypropan-2-yl)-1-methyl-1H-pyrazol-3-yl)pyridin-4-yl)amino)-1-methylcyclohexan-1-ol]	0.6 nM	0.4 nM	0.4 nM	0.2 nM	0.9 nM	0.8 nM		0.3 nM	183 nM	0.6 nM					
O=S(=O)(C1CC1)n1cc(-c2nccc(Nc3cc(NC4CCCC(NCCF)C4)c(-c4ccn(C(F)F)n4)cn3)n2)cn1 (centres unmarked) [Example 194, N^2-(2-(1-(Cyclopropylsulfonyl)-1H-pyrazol-4-yl)pyrimidin-4-yl)-5-(1-(difluoromethyl)-1H-pyrazol-3-yl)-N^4-(3-((2-fluoroethyl)amino)cyclohexyl)pyridine-2,4-diamine]	0.2 nM	0.3 nM	0.6 nM	0.1 nM	7.5 nM	4.4 nM	32.1 nM	5.8 nM	> 10000 nM	19.9 nM					
Cn1nc(-c2cnc(Nc3ccnc(-c4cnn(S(=O)(=O)C5CC5)c4)n3)cc2NC[C@H]2CC[C@@H](O)C2)cc1C(F)(F)F [Example 261, (1R,3S)-3-(((2-((2-(1-(Cyclopropylsulfonyl)-1H-pyrazol-4-yl)pyrimidin-4-yl)amino)-5-(1-methyl-5-(trifluoromethyl)-1H-pyrazol-3-yl)pyridin-4-yl)amino)methyl)cyclopentan-1-ol]	1.2 nM	0.1 nM	1.4 nM	0.8 nM	77.9 nM	5.8 nM	22.7 nM	5.6 nM	> 10000 nM	6.4 nM					
CN(C)C(=O)C[C@H]1CC[C@@H](Nc2cc(Nc3ccnc(-c4cnn(S(=O)(=O)C5CC5)c4)n3)ncc2-c2ccn(C(F)F)n2)CC1 [Example 205, 2-((1s,4s)-4-((2-((2-(1-(Cyclopropylsulfonyl)-1H-pyrazol-4-yl)pyrimidin-4-yl)amino)-5-(1-(difluoromethyl)-1H-pyrazol-3-yl)pyridin-4-yl)amino)cyclohexyl)-N,N-dimethylacetamide]	0.6 nM	0.3 nM	0.4 nM	0.2 nM	1 nM	0.6 nM	10.1 nM	0.4 nM	3960 nM	4.4 nM					
Cn1nc(-c2cnc(Nc3ccnc(-c4cnn(S(=O)(=O)C5CC5)c4)c3)nc2N[C@H]2CC[C@@](C)(O)CC2)cc1C(F)(F)F [Example 356, (1s,4s)-4-((2-((2-(1-(Cyclopropylsulfonyl)-1H-pyrazol-4-yl)pyridin-4-yl)amino)-5-(1-methyl-5-(trifluoromethyl)-1H-pyrazol-3-yl)pyrimidin-4-yl)amino)-1-methylcyclohexan-1-ol]											1.1 nM	1.8 nM	9.8 nM	12.1 nM	96.6 nM
CC(C)Nc1cc(Nc2ccnc(-c3cnn(S(=O)(=O)C4CC4)c3)n2)ncc1-c1ccn(CC(F)F)n1 [Example 248, N^2-(2-(1-(Cyclopropylsulfonyl)-1H-pyrazol-4-yl)pyrimidin-4-yl)-5-(1-(2,2-difluoroethyl)-1H-pyrazol-3-yl)-N^4-isopropylpyridine-2,4-diamine]		0.5 nM		0.3 nM		14.7 nM		4.8 nM		286 nM					
O=S(=O)(C1CC1)n1cc(-c2nccc(Nc3cc(N[C@H]4CC[C@@H](CC(F)F)CC4)c(-c4ccn(C(F)F)n4)cn3)n2)cn1 [Example 185, N^2-(2-(1-(Cyclopropylsulfonyl)-1H-pyrazol-4-yl)pyrimidin-4-yl)-N^4-((1s,4s)-4-(2,2-difluoroethyl)cyclohexyl)-5-(1-(difluoromethyl)-1H-pyrazol-3-yl)pyridine-2,4-diamine]		11 nM		3.8 nM		51.5 nM		59.5 nM		87.1 nM					
O=S(=O)(C1CC1)n1cc(-c2nccc(Nc3cc(N[C@H]4CC[C@@H](O)CC4)c(-c4cnn(C(F)F)c4)cn3)n2)cn1 [Example 77, (1s,4s)-4-((2-((2-(1-(Cyclopropylsulfonyl)-1H-pyrazol-4-yl)pyrimidin-4-yl)amino)-5-(1-(difluoromethyl)-1H-pyrazol-4-yl)pyridin-4-yl)amino)cyclohexan-1-ol]	8.8 nM		11.4 nM		80.8 nM		479 nM		> 10000 nM						
CN(C)CCCn1ccc(-c2cnc(Nc3ccnc(-c4cnn(S(=O)(=O)C5CC5)c4)n3)cc2N[C@H]2CC[C@@H](CO)CC2)n1 [Example 296, ((1s,4s)-4-((2-((2-(1-(Cyclopropylsulfonyl)-1H-pyrazol-4-yl)pyrimidin-4-yl)amino)-5-(1-(3-(dimethylamino)propyl)-1H-pyrazol-3-yl)pyridin-4-yl)amino)cyclohexyl)methanol]	0.2 nM	0.1 nM	0.1 nM	0.1 nM	0.3 nM	0.1 nM	0.5 nM	0.1 nM	48.8 nM	0.3 nM					
O=S(=O)(C1CC1)n1cc(-c2nccc(Nc3cc(NCC4CCCC(O)C4)c(-c4ccn(C(F)F)n4)cn3)n2)cn1 (centres unmarked) [Example 32, 3-(((2-((2-(1-(Cyclopropylsulfonyl)-1H-pyrazol-4-yl)pyrimidin-4-yl)amino)-5-(1-(difluoromethyl)-1H-pyrazol-3-yl)pyridin-4-yl)amino)methyl)cyclohexan-1-ol]	1.6 nM	0.5 nM	2.5 nM	0.2 nM	2.5 nM	1 nM	45.2 nM	1.9 nM	> 10000 nM	18.5 nM					
O=S(=O)(C1CC1)n1cc(-c2nccc(Nc3cc(NCC4(CO)COC4)c(-c4ccn(C(F)F)n4)cn3)n2)cn1 [Example 197, (3-(((2-((2-(1-(Cyclopropylsulfonyl)-1H-pyrazol-4-yl)pyrimidin-4-yl)amino)-5-(1-(difluoromethyl)-1H-pyrazol-3-yl)pyridin-4-yl)amino)methyl)oxetan-3-yl)methanol]	0.2 nM	0.1 nM	0.3 nM	0.1 nM	2.2 nM	1.1 nM	70 nM	2.1 nM	> 10000 nM	7.9 nM					
